Source: patent US9802960B2 (MILLENNIUM PHARMACEUTICALS, INC., priority 2014, dated 2017)
Like-named read-outs stand apart in the source and are kept apart here.

Target: Human VPS34 (Homo sapiens (Human), UniProt Q8NEB9)
Assay: Human VPS34 enzyme assay (Adapta TR-FRET)
Format: biochemical
Conditions: for inhibition at 1.11 µM: read-out: Percent Inhibition

Chain of Human VPS34 (Q8NEB9 whole entry): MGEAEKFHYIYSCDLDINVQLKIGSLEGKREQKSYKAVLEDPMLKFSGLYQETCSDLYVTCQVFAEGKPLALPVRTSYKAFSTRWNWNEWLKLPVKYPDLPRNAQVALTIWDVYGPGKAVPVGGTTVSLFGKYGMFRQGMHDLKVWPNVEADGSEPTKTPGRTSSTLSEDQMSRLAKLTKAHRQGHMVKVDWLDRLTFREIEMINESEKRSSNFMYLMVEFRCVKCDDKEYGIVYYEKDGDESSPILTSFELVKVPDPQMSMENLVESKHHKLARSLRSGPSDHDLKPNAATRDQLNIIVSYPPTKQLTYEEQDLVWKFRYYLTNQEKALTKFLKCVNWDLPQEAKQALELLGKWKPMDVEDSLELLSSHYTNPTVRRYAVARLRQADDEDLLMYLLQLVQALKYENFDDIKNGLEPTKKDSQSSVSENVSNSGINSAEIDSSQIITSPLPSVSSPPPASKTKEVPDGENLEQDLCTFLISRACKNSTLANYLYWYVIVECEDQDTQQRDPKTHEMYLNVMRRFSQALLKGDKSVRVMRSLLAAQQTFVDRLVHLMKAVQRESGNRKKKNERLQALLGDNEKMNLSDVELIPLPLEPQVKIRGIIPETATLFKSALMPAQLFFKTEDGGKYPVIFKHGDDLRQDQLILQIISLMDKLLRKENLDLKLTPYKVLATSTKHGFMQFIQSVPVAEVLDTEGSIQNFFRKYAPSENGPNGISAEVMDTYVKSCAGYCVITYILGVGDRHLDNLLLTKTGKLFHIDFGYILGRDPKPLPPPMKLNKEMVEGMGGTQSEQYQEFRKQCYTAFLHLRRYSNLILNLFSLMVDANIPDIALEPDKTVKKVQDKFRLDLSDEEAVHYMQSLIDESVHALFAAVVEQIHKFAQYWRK

Row | inhibition at 1.11 µM (compound concentration 1.11 μM) [%] | SMILES | further results
1 | 99 | Cc1c(-c2ccnc(Nc3ccncn3)c2)cnc(Cl)c1NS(=O)(=O)c1ccccc1 [Compound I-309, N-[6-chloro-4-methyl-2′-(pyrimidin-4-ylamino)-3,4′-bipyridin-5-yl]benzenesulfonamide] | –
2 | 92 | Cc1nccc(Nc2cc(-c3cnc(C)c(C(=O)N4CCCC4)c3)ccn2)n1 [Compound I-315, {6-methyl-2′-[(2-methylpyrimidin-4-yl)amino]-3,4′-bipyridin-5-yl}(pyrrolidin-1-yl)methanone] | –
3 | 73 | CC(=O)Nc1cc(-c2cnc(N)c(N3CCCN(C)S3(=O)=O)c2)ccn1 [Compound I-323, N-[6-amino-5-(6-methyl-1,1-dioxido-1,2,6-thiadiazinan-2-yl)-3,4′-bipyridin-2′-yl]acetamide] | –
4 | > 99 | CNC1CN(c2cc(-c3ccnc(NC(C)=O)c3)cnc2C)S(=O)(=O)C1 (centres unmarked) [Compound I-325, N-{6-methyl-5-[4-(methylamino)-1,1-dioxidoisothiazolidin-2-yl]-3,4′-bipyridin-2′-yl}acetamide] | –
5 | 93 | COc1ncc(-c2ccnc(NC(C)=O)c2)cc1N(C)C(=O)c1ccc(F)cc1F [Compound I-331, N-(2′-acetamido-6-methoxy-3,4′-bipyridin-5-yl)-2,4-difluoro-N-methylbenzamide] | –
6 | > 99 | CC(=O)Nc1cc(-c2cnc(Cl)c(NS(=O)(=O)c3ccc(C(F)(F)F)cc3Cl)c2C)ccn1 [Compound I-333, N-(6-chloro-5-(2-chloro-4-(trifluoromethyl)phenylsulfonamido)-4-methyl-[3,4′-bipyridin]-2′-yl)acetamide] | –
7 | 92 | CC(=O)Nc1cc(-c2cnc(Cl)c(NS(=O)(=O)c3ccc(C4CC4)cc3F)c2C)ccn1 [Compound I-335, N-(6-chloro-5-{[(4-cyclopropyl-2-fluorophenyl)sulfonyl]amino}-4-methyl-3,4′-bipyridin-2′-yl)acetamide] | –
8 | 52 | CC(=O)Nc1cc(-c2cnc(N)c(N3CCCC3=O)c2)ccn1 [Compound I-337, N-[6-amino-5-(2-oxopyrrolidin-1-yl)-3,4′-bipyridin-2′-yl]acetamide] | –
9 | 98 | CC(=O)Nc1cc(-c2cnc(C)c(NS(=O)(=O)c3cccc(C)c3F)c2)ccn1 [Compound I-339, N-(5-{[(2-fluoro-3-methylphenyl)sulfonyl]amino}-6-methyl-3,4′-bipyridin-2′-yl)acetamide] | –
10 | > 99 | COc1ncc(-c2ccnc(NC(C)=O)c2)cc1S(=O)(=O)Nc1ccc(Cl)cc1Cl [Compound I-344, N-{5-[(2,4-dichlorophenyl)sulfamoyl]-6-methoxy-3,4′-bipyridin-2′-yl}acetamide] | –
11 | 22 | COc1ncc(-c2ccnc(NC(C)=O)c2)cc1NC(=O)c1ccc(F)cc1F [Compound I-347, N-(2′-acetamido-6-methoxy-3,4′-bipyridin-5-yl)-2,4-difluorobenzamide] | –
12 | 94 | Cc1nccc(Nc2cc(-c3cncc(C(C)OCc4ccccn4)c3)ccn2)n1 (centres unmarked) [Compound I-349, N-(2-methylpyrimidin-4-yl)-5-[1-(pyridin-2-ylmethoxy)ethyl]-3,4′-bipyridin-2′-amine] | –
13 | > 99 | CCCCN(CCCC)S(=O)(=O)Nc1cc(-c2ccnc(NC(C)=O)c2)cnc1C [Compound I-350, N-{5-[(dibutylsulfamoyl)amino]-6-methyl-3,4′-bipyridin-2′-yl}acetamide] | –

More lines, now with the values behind:

Row | SMILES | inhibition at 1.11 µM (compound concentration 1.11 μM) [%] | further results
14 | Cc1nccc(Nc2cc(-c3cnc(N(C)C)c(C(=O)N(C)C45CC(C4)C5)c3)ccn2)n1 [Compound I-306, N-(bicyclo[1.1.1]pent-1-yl)-6-(dimethylamino)-N-methyl-2′-((2-methylpyrimidin-4-yl)amino)-3,4′-bipyridine-5-carboxamide] | > 99 | –
15 | Cc1ccc(Nc2cc(-c3cnc(C)c(NS(=O)(=O)c4ccc(F)cc4F)c3)ccn2)nn1 [Compound I-307, 2,4-difluoro-N-{6-methyl-2′-[(6-methylpyridazin-3-yl)amino]-3,4′-bipyridin-5-yl}benzenesulfonamide] | > 99 | –
16 | Cc1ncc(-c2ccnc(Nc3cnccn3)c2)cc1NS(=O)(=O)c1ccc(F)cc1F [Compound I-310, 2,4-difluoro-N-[6-methyl-2′-(pyrazin-2-ylamino)-3,4′-bipyridin-5-yl]benzenesulfonamide] | > 99 | –
17 | Cc1ncc(-c2ccnc(NC(=O)C3CC3)c2)cc1NS(=O)(=O)N(C)C [Compound I-311, N-{5-[(dimethylsulfamoyl)amino]-6-methyl-3,4′-bipyridin-2′-yl}cyclopropanecarboxamide] | > 99 | –
18 | CC(=O)Nc1cc(-c2cnc(Cl)c(NS(=O)(=O)c3ccccc3)c2C)ccn1 [Compound I-312, N-{6-chloro-4-methyl-5-[(phenylsulfonyl)amino]-3,4′-bipyridin-2′-yl}acetamide] | > 99 | –
19 | Cc1ncc(-c2ccnc(NC(=O)N3CCCC3)c2)cc1NS(=O)(=O)c1ccc(F)cc1F [Compound I-313, N-(5-{[(2,4-difluorophenyl)sulfonyl]amino}-6-methyl-3,4′-bipyridin-2′-yl)pyrrolidine-1-carboxamide] | 88 | –
20 | Cc1nccc(Nc2cc(-c3cnc(Cl)c(N(C)C)c3C)ccn2)n1 [Compound I-314, 6-chloro-N5,N5,4-trimethyl-N2′-(2-methylpyrimidin-4-yl)-3,4′-bipyridine-2′,5-diamine] | 91 | –
21 | CC(=O)Nc1cc(-c2cncc(S(=O)(=O)NC3C4CC5CC(C4)CC3C5)c2)ccn1 (centres unmarked) [Compound I-318, N-[5-(adamantan-2-ylsulfamoyl)-3,4′-bipyridin-2′-yl]acetamide] | 97 | –
22 | CC(=O)Nc1cc(-c2cnc(C)c(N(CCO)S(=O)(=O)c3ccc(F)cc3F)c2)ccn1 [Compound I-319, N-(5-{[(2,4-difluorophenyl)sulfonyl](2-hydroxyethyl)amino}-6-methyl-3,4′-bipyridin-2′-yl)acetamide] | 94 | –
23 | CC(=O)Nc1cc(-c2cncc(N3CCCCS3(=O)=O)c2)ccn1 [Compound I-320, N-[5-(1,1-dioxido-1,2-thiazinan-2-yl)-3,4′-bipyridin-2′-yl]acetamide] | 95 | –
24 | CC(=O)Nc1cc(-c2cncc(S(=O)(=O)NCc3ccccc3)c2)ccn1 [Compound I-321, N-[5-(benzylsulfamoyl)-3,4′-bipyridin-2′-yl]acetamide] | > 99 | –
25 | CC(=O)Nc1cc(-c2cnc(C)c(NS(=O)(=O)c3cccc(F)c3Cl)c2)ccn1 [Compound I-322, N-(5-{[(2-chloro-3-fluorophenyl)sulfonyl]amino}-6-methyl-3,4′-bipyridin-2′-yl)acetamide] | 96 | –
26 | Cc1ncc(-c2ccnc(NC(=O)OCC3(C)COC3)c2)cc1NS(=O)(=O)c1ccc(F)cc1F [Compound I-324, (3-methyloxetan-3-yl)methyl (5-{[(2,4-difluorophenyl)sulfonyl]amino}-6-methyl-3,4′-bipyridin-2′-yl)carbamate] | > 99 | –
27 | Cc1ncc(-c2ccnc(NC(=O)OCc3ccn(C)n3)c2)cc1NS(=O)(=O)c1ccc(F)cc1F [Compound I-326, (1-methyl-1H-pyrazol-3-yl)methyl (5-{[(2,4-difluorophenyl)sulfonyl]amino}-6-methyl-3,4′-bipyridin-2′-yl)carbamate] | 96 | –
28 | COc1ncc(-c2ccnc(NC(C)=O)c2)cc1S(=O)(=O)Nc1cccc(C(F)(F)F)c1 [Compound I-329, N-(6-methoxy-5-{[3-(trifluoromethyl)phenyl]sulfamoyl}-3,4′-bipyridin-2′-yl)acetamide] | > 99 | –
29 | CC(=O)Nc1cc(-c2cnc(Cl)c(S(=O)(=O)N[C@H](CO)c3ccccc3)c2)ccn1 [Compound I-330, N-(6-chloro-5-{[(1S)-2-hydroxy-1-phenylethyl]sulfamoyl}-3,4′-bipyridin-2′-yl)acetamide] | – | Percent Inhibition (compound concentration 1.11 μM): >99%
30 | COC(=O)Nc1cc(-c2cncc(S(=O)(=O)N3CCOCC3)c2)ccn1 [Compound I-332, methyl[5-(morpholin-4-ylsulfonyl)-3,4′-bipyridin-2′-yl]carbamate] | > 99 | –
31 | CC(=O)Nc1cc(-c2cnc3c(c2)S(=O)(=O)N[C@@H](c2ccccc2)CO3)ccn1 [Compound I-334, (S)-N-[4-(1,1-dioxido-3-phenyl-3,4-dihydro-2H-pyrido[2,3-b][1,4,5]oxathiazepin-8-yl)pyridin-2-yl]acetamide] | 82 | –
32 | Cc1nccc(Nc2cc(-c3cncc(C(C)Oc4ccccc4Cl)c3)ccn2)n1 (centres unmarked) [Compound I-336, 5-[1-(2-chlorophenoxy)ethyl]-N-(2-methylpyrimidin-4-yl)-3,4′-bipyridin-2′-amine] | 96 | –
33 | CC(=O)Nc1cc(-c2cncc(S(=O)(=O)NC3CC3)c2)ccn1 [Compound I-338, N-[5-(cyclopropylsulfamoyl)-3,4′-bipyridin-2′-yl]acetamide] | > 99 | –
34 | CC(=O)Nc1cc(-c2cc(NS(=O)(=O)c3ccc(F)cc3F)c3ncnn3c2)ccn1 [Compound I-340, N-[4-(8-{[(2,4-difluorophenyl)sulfonyl]amino}[1,2,4]triazolo[1,5-a]pyridin-6-yl)pyridin-2-yl]acetamide] | 91 | –
35 | CC(=O)Nc1cc(-c2cnc(C)c(NS(=O)(=O)N3CCCCCC3)c2)ccn1 [Compound I-341, N-{5-[(azepan-1-ylsulfonyl)amino]-6-methyl-3,4′-bipyridin-2′-yl}acetamide] | – | inhibition at 1.11 µM: > 99%
36 | CC(=O)Nc1cc(-c2cnc(C)c(N3CCCN(C)S3(=O)=O)c2)ccn1 [Compound I-343, N[6-methyl-5-(6-methyl-1,1-dioxido-1,2,6-thiadiazinan-2-yl)-3,4′-bipyridin-2′-yl]acetamide] | > 99 | –
37 | Cc1nccc(Nc2cc(-c3cnc(C)c(C(=O)N(C)c4ccc(F)cc4F)c3)ccn2)n1 [Compound I-346, N-(2,4-difluorophenyl)-N,6-dimethyl-2′-[(2-methylpyrimidin-4-yl)amino]-3,4′-bipyridine-5-carboxamide] | 95 | –
38 | CC(=O)Nc1cc(-c2cncc(NS(=O)(=O)N(C)C)c2)ccn1 [Compound I-348, N-{5-[(dimethylsulfamoyl)amino]-3,4′-bipyridin-2′-yl}acetamide] | > 99 | –
